Experiments:
[1] = Inhibition of TPA-stimulated release of HB-EGF-AP fusion protein from HT-1080 transfectant; format: cell-based; details: Homo sapiens, 1 h, 60 nM TPA for 60 min, AP activity of culture supernatant at 405 nm
Description: Human fibrosarcoma HT-1080 transfectant expressing fusion protein of HB-EGF and human placental alkaline phosphatase (AP) were used for following tests.
The cultured transfectant was treated with Trypsin-EDTA solution, and suspended in Minimum Essential Medium without phenol red; supplemented with 10% FCS(hereinafter referred to as MEM) at the concentration of 1.0×10^5 cells/ml. Each 0.2 ml of the cell suspension was dispensed into individual wells of 96 well microplate, and incubated overnight in a CO2 incubator at 37° C. After the incubation, the culture supernatant was removed by suction and the wells were washed with 0.2 ml/well of phosphate buffered saline. The cells were pretreated with 0.1 ml/well of the test compound solution [dimethyl sulfoxide (hereinafter referred to as DMSO) solution was diluted to 100 times with MEM] for 30 min in a CO2 incubator at 37° C. Then the culture supernatant was removed by suction and cells were treated with 0.2 ml/well of TPA solution (120 μM of DMSO solution was diluted to 60 nM with MEM) containing the same concentration of the compound as pretreatment for 60 min in a CO2 incubator at 37° C. The cells pretreated with MEM and incubated with only the TPA solution containing no test compound were used as control.
After these treatments, each 0.1 ml of culture supernatant collected from each well and 0.1 ml of MEM as background were transferred to individual wells of new 96 well microplate and incubated at 65° C. for 10 min after plate sealing to inactivate endogenous AP in MEM and cells. 0.1 ml of the substrate solution (prepared by diluting an aqueous 100 mg/ml p-nitrophenyl phosphate solution prepared previously 100 times with 0.01% magnesium chloride/1 M diethanolamine before use) for AP was added to each well and incubated for 120 minutes at room temperature in the dark. The absorbance at a wavelength of 405 nm of each well was measured using a microplate reader.

[2] = test system: epidermal hyperplasia in male BALB/c mice; assay: TPA-induced epidermal hyperplasia on mouse dorsal skin (epidermal thickness); format: in vivo; details: topical application in acetone 5 minutes, 24 hours and 48 hours after TPA; skin excised at 72 hours; FIG. 1
Description: After backs of male BALB/c mice were shaved, 10 μL of a TPA-acetone solution (0.1 mM) was applied to the dorsal skin surface in an area of about 1 cm^2. In the medicine-treated group, a volume of 20 μL of a solution prepared by dissolving the test compound in acetone was applied to the same area 5 minutes, 24 hours and 48 hours after TPA application. In the non-treated group, only TPA was applied. In the control group, acetone was applied instead of the TPA-acetone solution.
The mice were sacrificed and the skin tissues were excised 72 hours after TPA application. Then the tissues were fixed with formalin, the vertical sections including the center of the TPA- or acetone-treated area were prepared and embedded in paraffin according to the conventional method. And they were stained by hematoxylin-eosin after removing paraffin. The epidermal thickness was measured using a microscope.
In FIG. 1, the numeral in the ordinate represents the epidermal thickness (μm). A bar graph of TPA (-) represents the epidermal thickness of the control group and a bar graph of TPA represents the epidermal thickness of the non-treated group. The respective bar graphs of 1, 10 and 100 denote the epidermal thickness of the group wherein the test compound is administered at a dose of 1, 10 and 100 (μg/wound) of each test compound. […]

| Compound | IC50 [1] | hyperplasia inhibitory activity (epidermal thickness) [2] |
| --- | --- | --- |
| CCOCCOc1ccc(S(=O)(=O)N2C[C@H](O)[C@@H](O)[C@H](O)[C@@H]2C(=O)NO)cc1 [Compound b, (2R,3R,4R,5S)-1-(4′-ethoxyethoxy-benzenesulfonyl)-3,4,5-trihydroxy-piperidine-2-carboxylic acid hydroxamide] | 450 nM | – |
| O=C(NO)[C@H]1[C@@H](O)[C@H](O)[C@H](O)CN1S(=O)(=O)c1ccc(Oc2ccccc2)cc1 [Compound e, (2R,3R,4R,5R)-3,4,5-trihydroxy-1-(4′-phenoxybenzenesulfonyl)-piperidine-2-carboxylic acid hydroxamide] | 340 nM | – |
| COc1ccc(S(=O)(=O)N2C[C@H](O)[C@@H](O)[C@@H](O)[C@@H]2C(=O)NO)cc1 [Compound d, (2R,3S,4R,5S)-3,4,5-trihydroxy-1-(4′-methoxybenzenesulfonyl)-piperidine-2-carboxylic acid hydroxamide] | 1600 nM | – |
| COc1ccc(S(=O)(=O)N2C[C@H](O)[C@@H](O)[C@H](O)[C@@H]2C(=O)NO)cc1 [Compound a, (2R,3R,4R,5S)-3,4,5-trihydroxy-1-(4′-methoxybenzenesulfonyl)-piperidine-2-carboxylic acid hydroxamide] | 610 nM | – |
| O=C(NO)[C@H]1[C@@H](O)[C@H](O)[C@@H](O)CN1S(=O)(=O)c1ccc(Oc2ccccc2)cc1 [Compound c, (2R,3R,4R,5S)-3,4,5-trihydroxy-1-(4′-phenoxybenzenesulfonyl)-piperidine-2-carboxylic acid hydroxamide] | 350 nM | hyperplasia inhibitory activity |
